From PubChem BioAssay AID200 (DTP/NCI, 2004)
“And” between values parts separate entries of the source, which are not always exact repeats. Identical values can stand only once. Toxic doses and inconclusive results are not listed. How the source made its calls: active means survival T/C of 150% or more; inactive means T/C below 125% in these data.

Test system: B6C3F1 mice, B16 melanoma ip, median survival T/C
Experiment: NCI In Vivo Anticancer Drug Screen. Data for tumor model B16 Melanoma (intraperitoneal) in B6C3F1 mice
Conditions: endpoint: median survival time, schedule: Q01DX009 (ip), higher = longer survival
Outline: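 Antitumor effect was judged in mice with transplanted tumors by dividing the treated group's survival measure by that of vehicle controls.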

Measured: T/C

O=C(N/N=C/c1c(O)ccc2ccccc12)C(=O)N/N=C/c1c(O)ccc2ccccc12
inactive: dose: 12.5 mg/kg/injection, vehicle: saline with Tween-80 110 % of control and 94 % of control and 107 % of control | dose: 25.0 mg/kg/injection, vehicle: saline with Tween-80 111 % of control and 112 % of control and 118 % of control | dose: 100.0 mg/kg/injection, vehicle: saline with Tween-80 94 % of control

CN(C)/N=N/c1[nH]cnc1C(N)=O.[Cl][Cu][Cl]
inactive: dose: 0.5 mg/kg/injection, vehicle: water 106 % of control | dose: 1.0 mg/kg/injection, vehicle: water 106 % of control | dose: 2.0 mg/kg/injection, vehicle: water 115 % of control | dose: 4.0 mg/kg/injection, vehicle: water 109 % of control | dose: 8.0 mg/kg/injection, vehicle: water 109 % of control

Cc1cc(C)c(-c2cc(O)c(C)cc2O)c(C)c1
inactive: dose: 12.5 mg/kg/injection, vehicle: Klucel (hydroxypropylcellulose) (HPC) 99 % of control | dose: 25.0 mg/kg/injection, vehicle: Klucel (hydroxypropylcellulose) (HPC) 101 % of control | dose: 50.0 mg/kg/injection, vehicle: Klucel (hydroxypropylcellulose) (HPC) 103 % of control | dose: 100.0 mg/kg/injection, vehicle: Klucel (hydroxypropylcellulose) (HPC) 99 % of control | dose: 200.0 mg/kg/injection, vehicle: Klucel (hydroxypropylcellulose) (HPC) 100 % of control

N#CC(Br)(Br)C(N)=O
inactive: dose: 0.31 mg/kg/injection, vehicle: saline 96 % of control | dose: 1.25 mg/kg/injection, vehicle: saline 87 % of control | dose: 37.5 micrograms/kg/injection, vehicle: saline 98 % of control | dose: 75.0 micrograms/kg/injection, vehicle: saline 98 % of control | dose: 150.0 micrograms/kg/injection, vehicle: saline 96 % of control | dose: 300.0 micrograms/kg/injection, vehicle: saline 93 % of control
